# Experimental data from PubChem BioAssay AID192 (DTP/NCI, 2004).
# Several values for one entry are separate records, joined by “and”; a condition that tells them apart may be missing. Equal entries are not always repeated. Inconclusive results and toxic doses are left out.
# Test system: BDF1 mice, B16 melanoma ip, median survival T/C
# Experiment: NCI In Vivo Anticancer Drug Screen. Data for tumor model B16 Melanoma (intraperitoneal) in B6D2F1 (BDF1) mice
# Conditions: endpoint: median survival time, higher = longer survival
# In short: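 Compounds were tested in mice carrying transplantable tumors. Survival or tumor size was recorded, and each value is the treated-group measurement (T) divided by that of the vehicle-treated control group (C).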
# [1] = dose: 16.0 mg/kg/injection, schedule: Q01DX009 (ip), vehicle: saline with Tween-80
# [2] = dose: 32.0 mg/kg/injection, schedule: Q01DX009 (ip), vehicle: saline with Tween-80
smiles,measurement,setting,value
COc1cc(NS(C)(=O)=O)ccc1Nc1c2ccccc2nc2ccccc12,T/C,"dose: 0.1 mg/kg/injection, schedule: Q01DX009 (ip), vehicle: saline",102 % of control
same,T/C,"dose: 0.2 mg/kg/injection, schedule: Q01DX009 (ip), vehicle: saline",118 % of control
same,T/C,"dose: 0.25 mg/kg/injection, schedule: Q01DX009 (ip), vehicle: other",119 % of control
same,T/C,"dose: 0.5 mg/kg/injection, schedule: Q01DX009 (ip), vehicle: Klucel (hydroxypropylcellulose) (HPC)",183 % of control
same,T/C,"dose: 0.5 mg/kg/injection, schedule: Q01DX009 (ip), vehicle: lactic acid",150 % of control
same,T/C,"dose: 0.5 mg/kg/injection, schedule: Q01DX009 (ip), vehicle: other",120 % of control
same,T/C,"dose: 0.5 mg/kg/injection, schedule: Q03HX024 (oral), vehicle: lactic acid",100 % of control
same,T/C,"dose: 0.75 mg/kg/injection, schedule: Q01DX009 (ip), vehicle: other",113 % of control
same,T/C,"dose: 0.8 mg/kg/injection, schedule: Q01DX005 (iv), vehicle: lactic acid",100 % of control
same,T/C,"dose: 0.8 mg/kg/injection, schedule: Q01DX009 (ip), vehicle: Klucel (hydroxypropylcellulose) (HPC)",180 % of control
same,T/C,"dose: 0.8 mg/kg/injection, schedule: Q01DX009 (ip), vehicle: saline",177 % of control
same,T/C,"dose: 0.8 mg/kg/injection, schedule: Q04DX003 (iv), vehicle: lactic acid",102 % of control
same,T/C,"dose: 1.0 mg/kg/injection, schedule: Q01DX009 (ip), vehicle: Klucel (hydroxypropylcellulose) (HPC)",160 % of control and 166 % of control and 189 % of control
same,T/C,"dose: 1.0 mg/kg/injection, schedule: Q01DX009 (ip), vehicle: clinical formulation",183 % of control
same,T/C,"dose: 1.0 mg/kg/injection, schedule: Q01DX009 (ip), vehicle: lactic acid",202 % of control
same,T/C,"dose: 1.0 mg/kg/injection, schedule: Q01DX009 (oral), vehicle: lactic acid",96 % of control
same,T/C,"dose: 1.0 mg/kg/injection, schedule: Q01DX009 (oral), vehicle: other",106 % of control and 109 % of control
same,T/C,"dose: 1.0 mg/kg/injection, schedule: Q03HX024 (oral), vehicle: lactic acid",97 % of control
same,T/C,"dose: 1.0 mg/kg/injection, schedule: Q04DX003 (ip), vehicle: other",118 % of control
same,T/C,"dose: 1.25 mg/kg/injection, schedule: Q01DX009 (ip), vehicle: saline",177 % of control
same,T/C,"dose: 1.5 mg/kg/injection, schedule: Q01DX009 (ip), vehicle: other",114 % of control
same,T/C,"dose: 1.6 mg/kg/injection, schedule: Q01DX005 (iv), vehicle: lactic acid",110 % of control
same,T/C,"dose: 1.6 mg/kg/injection, schedule: Q04DX003 (iv), vehicle: lactic acid",92 % of control
same,T/C,"dose: 2.0 mg/kg/injection, schedule: Q01DX009 (ip), vehicle: Klucel (hydroxypropylcellulose) (HPC)",184 % of control
same,T/C,"dose: 2.0 mg/kg/injection, schedule: Q01DX009 (ip), vehicle: clinical formulation",212 % of control
same,T/C,"dose: 2.0 mg/kg/injection, schedule: Q01DX009 (ip), vehicle: lactic acid",218 % of control
same,T/C,"dose: 2.0 mg/kg/injection, schedule: Q01DX009 (ip), vehicle: other",158 % of control
same,T/C,"dose: 2.0 mg/kg/injection, schedule: Q01DX009 (oral), vehicle: lactic acid",98 % of control
same,T/C,"dose: 2.0 mg/kg/injection, schedule: Q01DX009 (oral), vehicle: other",105 % of control and 109 % of control
same,T/C,"dose: 2.0 mg/kg/injection, schedule: Q03HX016 (oral), vehicle: lactic acid",101 % of control
same,T/C,"dose: 2.0 mg/kg/injection, schedule: Q03HX024 (oral), vehicle: lactic acid",101 % of control
same,T/C,"dose: 2.0 mg/kg/injection, schedule: Q04DX003 (oral), vehicle: lactic acid",105 % of control
same,T/C,"dose: 2.0 mg/kg/injection, schedule: Q04DX003 (oral), vehicle: other",105 % of control and 96 % of control
same,T/C,"dose: 3.0 mg/kg/injection, schedule: Q01DX009 (ip), vehicle: Klucel (hydroxypropylcellulose) (HPC)",250 % of control
same,T/C,"dose: 3.12 mg/kg/injection, schedule: Q01DX009 (ip), vehicle: saline",113 % of control
same,T/C,"dose: 3.3 mg/kg/injection, schedule: Q01DX005 (iv), vehicle: lactic acid",155 % of control
same,T/C,"dose: 3.3 mg/kg/injection, schedule: Q04DX003 (iv), vehicle: lactic acid",105 % of control
same,T/C,"dose: 3.75 mg/kg/injection, schedule: Q04DX003 (ip), vehicle: clinical formulation",173 % of control
same,T/C,"dose: 4.0 mg/kg/injection, schedule: Q01DX009 (oral), vehicle: lactic acid",105 % of control
same,T/C,"dose: 4.0 mg/kg/injection, schedule: Q01DX009 (oral), vehicle: other",100 % of control and 96 % of control
same,T/C,"dose: 4.0 mg/kg/injection, schedule: Q04DX003 (oral), vehicle: lactic acid",110 % of control
same,T/C,"dose: 4.0 mg/kg/injection, schedule: Q04DX003 (oral), vehicle: other",97 % of control and 105 % of control and 103 % of control
same,T/C,"dose: 5.0 mg/kg/injection, schedule: Q01DX009 (ip), vehicle: Klucel (hydroxypropylcellulose) (HPC)",223 % of control
same,T/C,"dose: 6.0 mg/kg/injection, schedule: Q01DX009 (ip), vehicle: other",72 % of control
same,T/C,"dose: 6.25 mg/kg/injection, schedule: Q01DX009 (ip), vehicle: saline",124 % of control
same,T/C,"dose: 6.5 mg/kg/injection, schedule: Q01DX005 (iv), vehicle: lactic acid",112 % of control
same,T/C,"dose: 6.5 mg/kg/injection, schedule: Q04DX003 (iv), vehicle: lactic acid",107 % of control
same,T/C,"dose: 7.5 mg/kg/injection, schedule: Q04DX003 (ip), vehicle: clinical formulation",193 % of control
same,T/C,"dose: 8.0 mg/kg/injection, schedule: Q01DX001 (ip), vehicle: lactic acid",151 % of control
same,T/C,"dose: 8.0 mg/kg/injection, schedule: Q01DX001 (oral), vehicle: lactic acid",110 % of control
same,T/C,"dose: 8.0 mg/kg/injection, schedule: Q01DX009 (oral), vehicle: other",105 % of control and 103 % of control
same,T/C,"dose: 8.0 mg/kg/injection, schedule: Q04DX003 (ip), vehicle: other",188 % of control
same,T/C,"dose: 8.0 mg/kg/injection, schedule: Q04DX003 (oral), vehicle: lactic acid",111 % of control
same,T/C,"dose: 8.0 mg/kg/injection, schedule: Q04DX003 (oral), vehicle: other",105 % of control [middle of 4 runs]
same,T/C,"dose: 8.0 mg/kg/injection, schedule: Q08DX002 (oral), vehicle: lactic acid",107 % of control
same,T/C,"dose: 12.5 mg/kg/injection, schedule: Q01DX009 (ip), vehicle: saline",163 % of control
same,T/C,"dose: 12.5 mg/kg/injection, schedule: Q04DX003 (ip), vehicle: Klucel (hydroxypropylcellulose) (HPC)",166 % of control
same,T/C,"dose: 13.0 mg/kg/injection, schedule: Q04DX003 (iv), vehicle: lactic acid",120 % of control
same,T/C,"dose: 15.0 mg/kg/injection, schedule: Q04DX003 (ip), vehicle: clinical formulation",173 % of control
same,T/C,"dose: 16.0 mg/kg/injection, schedule: Q01DX001 (oral), vehicle: lactic acid",110 % of control
same,T/C,"dose: 16.0 mg/kg/injection, schedule: Q04DX003 (ip), vehicle: other",152 % of control
same,T/C,"dose: 16.0 mg/kg/injection, schedule: Q04DX003 (oral), vehicle: other",97 % of control and 113 % of control and 110 % of control
same,T/C,"dose: 16.0 mg/kg/injection, schedule: Q08DX002 (oral), vehicle: lactic acid",108 % of control
same,T/C,"dose: 25.0 mg/kg/injection, schedule: Q01DX001 (ip), vehicle: saline sonified",166 % of control
same,T/C,"dose: 25.0 mg/kg/injection, schedule: Q01DX001 (ip), vehicle: saline",160 % of control
same,T/C,"dose: 25.0 mg/kg/injection, schedule: Q04DX003 (ip), vehicle: Klucel (hydroxypropylcellulose) (HPC)",285 % of control
same,T/C,"dose: 26.0 mg/kg/injection, schedule: Q04DX003 (iv), vehicle: lactic acid",120 % of control
same,T/C,"dose: 32.0 mg/kg/injection, schedule: Q01DX001 (oral), vehicle: lactic acid",116 % of control
same,T/C,"dose: 32.0 mg/kg/injection, schedule: Q04DX003 (oral), vehicle: other",121 % of control [middle of 4 runs]
same,T/C,"dose: 32.0 mg/kg/injection, schedule: Q08DX002 (oral), vehicle: lactic acid",115 % of control
same,T/C,"dose: 50.0 mg/kg/injection, schedule: Q01DX001 (ip), vehicle: saline sonified",102 % of control
same,T/C,"dose: 64.0 mg/kg/injection, schedule: Q04DX003 (oral), vehicle: other",110 % of control
same,T/C,"dose: 100.0 mg/kg/injection, schedule: Q01DX001 (ip), vehicle: saline sonified",169 % of control
Nc1ccn(C2OC(COP(=O)(O)O)C(O)C2O)c(=O)n1 (configuration not stated),T/C,[1],105 % of control
same,T/C,[2],105 % of control
same,T/C,"dose: 64.0 mg/kg/injection, schedule: Q01DX009 (ip), vehicle: saline with Tween-80",115 % of control
same,T/C,"dose: 128.0 mg/kg/injection, schedule: Q01DX009 (ip), vehicle: saline with Tween-80",122 % of control
Oc1ccc(C2(c3ccc(O)cc3)CCCCC2)cc1,T/C,"dose: 50.0 mg/kg/injection, schedule: Q01DX009 (ip), vehicle: acetone",97 % of control
CCc1ccc(/C=C/c2ccc(O)c3ncccc23)[n+](C)c1,T/C,"dose: 4.0 mg/kg/injection, schedule: Q01DX009 (ip), vehicle: saline with Tween-80",93 % of control
same,T/C,"dose: 8.0 mg/kg/injection, schedule: Q01DX009 (ip), vehicle: saline with Tween-80",93 % of control
same,T/C,[1],102 % of control
same,T/C,[2],114 % of control
